Assay type in all cases: cell-based
The test system of experiment [1] is Streptococcus pyogenes. Put plainly: Zone inhibition assay (filter paper disc area diffusion). To be noted: distance from edge of disc to bacterial growth; blood agar; discs saturated with 100 mg/ml solution (antibiotic control discs 5-30 μg); 24 hours at 37° C. On the procedure: (§1) Two methods were used to examine whether an inhibitory effect from the zinc containing compounds was observable and if there was an inhibitory effect, whether the effect was bactericidal (bacteria-killing) or bacteriostatic (bacterial-inhibiting) in nature. In the first method, two Gram-positive bacteria strains (Staphlococcus aureus, Streptococcus pyogenes), two Gram-negative bacteria strains (Salmonella typhimerium, Eschrichia coli), and one common yeast strain (Candida albicans) were grown nutrient agar plates, except in the case of S. pyogenes which was grown on blood agar plates.
(§2) Zone inhibition assays were conducted with eighteen different samples in accordance with the methodology described by Maruzella, J. C. and Henry, P. A., J. Am. Pharm. Assoc. 47:894 (1958) for filter paper disc area diffusion. Sample solutions were prepared to approximate 100 mg/mL concentrations.
(§3) Organisms were grown for 24 hours at 37° C. on blood agar plates with the exception of Candida albicans which was grown in a standard methods agar (SMA) medium. Solutions of each sample were prepared using sterile DD water at a concentration of 100 mg/ml. Paper discs were saturated with solution from each sample and dried aseptically. […] Following drying of solution derived discs, all discs were placed on agar plates with each of the five different microorganisms.

The subject of experiment [2] is Salmonella typhimerium. The description is as above. Conditions: distance from edge of disc to bacterial growth; discs saturated with 100 mg/ml solution (antibiotic control discs 5-30 μg); 24 hours at 37° C. On the procedure:
as §1, §2, §3

For experiment [3], the system named is Eschrichia coli. Described as above. To be noted: distance from edge of disc to bacterial growth; discs saturated with 100 mg/ml solution (antibiotic control discs 5-30 μg); 24 hours at 37° C. On the procedure: as §1, §2, §3
In experiment [4] the test system is Candida albicans. Described as above. Conditions: distance from edge of disc to growth; discs saturated with 100 mg/ml solution (antibiotic control discs 5-30 μg); 24 hours at 37° C. The method, then: as §1, §2, §3
Experiment [5] deals with Staphlococcus aureus. The experiment is described as above. Conditions: distance from edge of disc to bacterial growth; discs saturated with 100 mg/ml solution (antibiotic control discs 5-30 μg); 24 hours at 37° C. On the procedure: as §1, §2, §3
The subject of experiment [6] is Eschrichia coli. In words: Turbidity assay (TSB tubes, plated out). More on the design: key: no-growth (NG) which corresponds with excellent inhibitory activity; partial growth (PG) which corresponds with good inhibitory activity; complete growth (CG) which corresponds with little or no inhibitory activity. Conditions: TSB tube with 1.0 mL sample solution (100 mg/mL) and 50 μL 24-hour culture; after 24 hours plated, incubated 24 hours. On the procedure: (§4) In the second method, turbidity assays were conducted. Tryptic soy broth (TSB) tubes were inoculated with 1.0 mL of sample solutions (100 mg/mL) and 50 μL of 24-hour cultures of each microbe. In the case of C. albicans, 100 μL of 24-hour culture was used. After 24 hours, an aliquot from each tube was plated out onto nutrient media and incubated for 24 hours. Following incubation, colonies on each plate were observed and characterized as one of three categories: no-growth (NG) which corresponds with excellent inhibitory activity, partial growth (PG) which corresponds with good inhibitory activity, complete growth (CG) which corresponds with little or no inhibitory activity.
(§5) S. pyongenes, could not be grown in the solution, so the turbidity assay was not conducted for that microorganism. When the data from both zone inhibition (Table 2) and turbidity (Table 3) assays are compared, an indication of the inhibition activity may be evident.

The subject of experiment [7] is Candida albicans. Put plainly: Turbidity assay (TSB tubes, plated out). More on the design: key: no-growth (NG) which corresponds with excellent inhibitory activity; partial growth (PG) which corresponds with good inhibitory activity; complete growth (CG) which corresponds with little or no inhibitory activity. Conditions: TSB tube with 1.0 mL sample solution (100 mg/mL) and 100 μL 24-hour culture; after 24 hours plated, incubated 24 hours. The method, then: as §4, §5

Experiment [8] deals with Staphlococcus aureus. In words: Turbidity assay (TSB tubes, plated out). Also on record: key: no-growth (NG) which corresponds with excellent inhibitory activity; partial growth (PG) which corresponds with good inhibitory activity; complete growth (CG) which corresponds with little or no inhibitory activity. Conditions: TSB tube with 1.0 mL sample solution (100 mg/mL) and 50 μL 24-hour culture; after 24 hours plated, incubated 24 hours. On the procedure: as §4, §5

SMILES strings stand for the structures.

For the compound `Cc1cc(NS(=O)(=O)c2ccc(N)cc2)no1` [Sample 12, Sulfamethoxazole], the “inhibitory zone, Streptococcus pyogenes” value in experiment [1] came out at 7.5 millimeters. In addition, the “inhibitory zone, Salmonella typhimerium” value in experiment [2] came out at 4 millimeters. Also, in experiment [3], the “inhibitory zone, Eschrichia coli” value worked out at 3 millimeters. Besides, the “inhibitory zone, Candida albicans” value in experiment [4] was “no activity”. Moreover, the “inhibitory zone, Staphlococcus aureus” value in experiment [5] came to 3.5 millimeters. Besides, in experiment [6], the “colony growth category, Eschrichia coli” value is given as “CG”. In experiment [7], the “colony growth category, Candida albicans” value is listed as “CG”. Also, in experiment [8], the “colony growth category, Staphlococcus aureus” value is recorded as “CG”.
Turning to `CC(=O)[O-].[Na+]` [Sample 15, Sodium Acetate], the “inhibitory zone, Streptococcus pyogenes” value in experiment [1] is reported as “no activity”. Besides, in experiment [2], the “inhibitory zone, Salmonella typhimerium” value is “no activity”. For the same compound, the “inhibitory zone, Eschrichia coli” value in experiment [3] was “no activity”. Also, the “inhibitory zone, Candida albicans” value in experiment [4] is recorded as “no activity”. In addition, in experiment [5], the “inhibitory zone, Staphlococcus aureus” value is “no activity”. Besides, the “colony growth category, Eschrichia coli” value in experiment [6] is reported as “NG”. Besides, the “colony growth category, Candida albicans” value in experiment [7] is given as “CG”. The “colony growth category, Staphlococcus aureus” value in experiment [8] was “NG”.

Values taken from patent US7582418B2, “Antimicrobial chelates” (Albion Laboratories, Inc., priority 2004, dated 2009).
